# Laboratory results published in article PMC8070648, “Simultaneous Visualization of ^161Tb- and ^177Lu-Labeled Somatostatin Analogues Using Dual-Isotope SPECT Imaging” (Pharmaceutics, 2021).
# Like-named read-outs stand apart in the source and are kept apart here.
# Test: Biodistribution in AR42J tumor-bearing nude mice
# Assay type: in vivo
# Conditions: female, CD-1 nude, mouse, iv, 1 nmol/mouse, total radioactivity, i.v. 5 MBq; for tissue uptake at 2 h: 2 h p.i.; for tissue uptake at 24 h: 24 h p.i.
# Source text: Five-week-old female CD-1 nude mice were purchased from Charles River Laboratories (Sulzfeld, Germany).
# [1] = AR42J tumor, read-out: AR42J Tumor
# [2] = femoral muscle, read-out: Muscle
# [3] = intestines, read-out: Intestines
compound,measurement,setting,value
"C[C@@H](O)[C@@H]1NC(=O)[C@H](CCCCN)NC(=O)[C@@H](Cc2c[nH]c3ccccc23)NC(=O)[C@H](Cc2ccc(O)cc2)NC(=O)[C@@H](NC(=O)[C@@H](Cc2ccccc2)NC(=O)CN2CCN(CC(=O)O)CCN(CC(=O)O)CCN(CC(=O)O)CC2)CSSC[C@@H](C(=O)N[C@H](CO)[C@@H](C)O)NC1=O [[^161Tb]Tb-DOTATOC, metal not drawn]",tissue uptake at 2 h,[1],8.2 ± 0.2 %ID/g
same,tissue uptake at 24 h,[1],3.8 ± 0.6 %ID/g
same,tissue uptake at 2 h,"adrenals, read-out: Adrenals",0.25 ± 0.06 %ID/g
same,tissue uptake at 24 h,"adrenals, read-out: Adrenals",0.23 ± 0.2 %ID/g
same,tissue uptake at 2 h,"blood, read-out: Blood",≤ 0.1 %ID/g
same,tissue uptake at 24 h,"blood, read-out: Blood",≤ 0.1 %ID/g
same,tissue uptake at 2 h,[2],≤ 0.1 %ID/g
same,tissue uptake at 24 h,[2],≤ 0.1 %ID/g
same,tissue uptake at 2 h,"femur, read-out: Femur",≤ 0.1 %ID/g
same,tissue uptake at 24 h,"femur, read-out: Femur",≤ 0.1 %ID/g
same,tissue uptake at 2 h,"heart, read-out: Heart",≤ 0.1 %ID/g
same,tissue uptake at 24 h,"heart, read-out: Heart",≤ 0.1 %ID/g
same,tissue uptake at 2 h,[3],0.21 ± 0.13 %ID/g
same,tissue uptake at 24 h,[3],≤ 0.1 %ID/g
same,tissue uptake at 2 h,"kidneys, read-out: Kidneys",9.9 ± 1.4 %ID/g
same,tissue uptake at 24 h,"kidneys, read-out: Kidneys",5.2 ± 0.6 %ID/g
same,tissue uptake at 2 h,"liver, read-out: Liver",0.17 ± 0.01 %ID/g
same,tissue uptake at 24 h,"liver, read-out: Liver",≤ 0.1 %ID/g
same,tissue uptake at 2 h,"lung, read-out: Lung",0.27 ± 0.03 %ID/g
same,tissue uptake at 24 h,"lung, read-out: Lung",0.11 ± 0.01 %ID/g
same,tissue uptake at 2 h,"pancreas, read-out: Pancreas",0.71 ± 0.07 %ID/g
same,tissue uptake at 24 h,"pancreas, read-out: Pancreas",0.18 ± 0.01 %ID/g
same,tissue uptake at 2 h,"spleen, read-out: Spleen",0.11 ± 0.02 %ID/g
same,tissue uptake at 24 h,"spleen, read-out: Spleen",≤ 0.1 %ID/g
same,tissue uptake at 2 h,"stomach, read-out: Stomach",0.74 ± 0.38 %ID/g
same,tissue uptake at 24 h,"stomach, read-out: Stomach",0.29 ± 0.11 %ID/g
